According to US20260256667A1, “ORAL CARE COMPOSITION FOR INCREASING SELF CONFIDENCE” (GIVAUDAN SA, priority 2023, published 2026):

Key:
[1] = employed in oral care compositions such as mouthwashes or toothpastes; cited from earlier work
[2] = Self-confidence, 9-item subscale of the modified CSAI-2 questionnaire, after teeth brushing, home use test; format: in vivo, human
Procedure: Individual's thoughts and feelings in relation to their self-confidence as per their perceived oral health (such as breath) were measured using a 9-item subscale of the modified Competitive State Anxiety Questionnaire (CSAI-2).
The nine items in the Self-confidence scale include five that describe positive expectations (“I feel self-confident”, “I am confident I can meet the challenge”, “I'm confident about performing well”, “I'm confident because I mentally picture myself reaching my goal”, and “I'm confident about coming through under pressure”), and four that describe a generalised feeling of calmness (“I feel calm”, “I feel comfortable”, “I feel secure”, “I feel mentally relaxed”). All items were rated on a 4-point scale anchored by 1 (“Not at all”) and 4 (“Very much so”).
(§1) Twenty-six participants were pre-screened to ensure that they had no underlying dental problems.
(§2) A repeated measures design, with a randomised repeated trial per product was used. Three toothpastes were prepared with: • Control: peppermint flavour • EC180—150 ppm: peppermint flavour+150 ppm EC180 (concentration in toothpaste) • EC180—250 ppm: peppermint flavour+250 ppm EC180 (concentration in toothpaste)
(§3) Participants were given duplicate tubes of each toothpaste (6 tubes in total). All products were assigned different codes and presented in white tubes to prevent colour as a confounding factor.
(§4) The participants did the test each morning in their homes as per their usual teeth cleaning time (between 7:00 am and 10:00 am) and were asked to refrain from using other oral practices apart from brushing with test product. Testing was done with one product a day with a one-day separation left before testing the next product. A questionnaire was sent to them via an online link for them to complete before teeth cleaning and after teeth cleaning. Responses before teeth cleaning were recorded as their baseline scores.
The questionnaires on breath-freshness and self-confidence was set up for participants to respond to at the five time-points: (i) pre-brush baseline (ii) 0 minutes immediately post-bush (iii) 30 minutes post-brush (iv) 60 minutes post-brush. A total of 47 datasets per product was input for analysis and 5 incompletes were removed.
Self-confidence was measured with the 9-Item subscale of the Modified Competitive State Inventory-2 (CSAI-2). The questionnaire uses a 4-point scale as follows:
1—not at all; 2—somewhat; 3—moderately so; 4—very much so.
(§5) To evaluate a change effect from the baseline (pre-brush) to the different times post-brush, a mean difference between each time-point to the baseline mean score was calculated to obtain delta values.

[3] = Breath-freshness self-assessment (three questions) after teeth brushing, home use test; format: in vivo, human
Procedure: as §1, §2, §3, §4
The data for this test was collected through an online questionnaire set up via SurveyMonkey Audience. The questionnaires on breath-freshness and self-confidence was set up for participants to respond to at the five time-points: (i) pre-brush baseline (ii) 0 minutes immediately post-bush (iii) 30 minutes post-brush (iv) 60 minutes post-brush. A total of 47 datasets per product was input for analysis and 5 incompletes were removed.
Breath freshness was self-evaluated with a set of three questions asking (i) whole mouth clean feel; (ii) natural freshness in mouth; and (lii) cooling sensation in the mouth. […] Breath assessment recorded before teeth brushing was categorized as the baseline measure.
as §5

[4] = 60 minutes from brushing with a toothpaste containing EC180

Compound: CC(C)[C@@H]1CC[C@@H](C)C[C@H]1C(=O)Nc1ccc(CC#N)cc1 [EC180, (1R,2S,5R)—N-(4-cyanomethylphenyl)-p-menthane carboxamide]
- cooling effect [1]: strong and long-lasting cooling effect
- level of self-confidence vs flavoured tooth paste alone ([2]; 10 minutes after brushing, in a flavoured tooth-paste, FIG. 2): significantly increased
- change of level of self-confidence compared to immediately after brushing (0 min) ([2]; 10 minutes after brushing, toothpaste comprising EC180): noticeable increase
- self-confidence compared to the level attained immediately after brushing [2, 4]: more than 80%
- period of time the level of self-confidence remained elevated after teeth brushing ([2]; in a flavoured tooth-paste, effect still observed 60 min after brushing): up to 30 min
- level of breath freshness vs flavoured tooth paste alone ([3]; 10 minutes after brushing, in a flavoured tooth-paste, FIG. 1): same level of breath freshness
- breath freshness relative to the initial level [3, 4]: about 60%
- change of breath freshness compared to immediately after brushing (0 min) ([3]; up to 10 minutes after brushing, toothpaste comprising EC180): only minimally increases
